Test results: ChEMBL document CHEMBL4715882, “Evaluation of pyrrolidine-based analog of jaspine B as potential SphK1 inhibitors against rheumatoid arthritis” (Bioorg Med Chem Lett, 2021)
The source made the active and inactive calls. The calls are words filed in the database; no cut-off is given here.

Columns and labels:
[1] = Antiinflammatory activity against LPS-induced HFLS-RA cells; type: functional, cell-based, Homo sapiens
Sphingosine kinase 1 = Sphingosine kinase 1 (Homo sapiens, UniProt Q9NYA1); test: Inhibition of SphK1 (unknown origin)
Sphingosine kinase 2 = target: T1, Sphingosine kinase 2 (Homo sapiens, UniProt Q9NRA0); test: Inhibition of SphK2 (unknown origin)
T1 sequence (Q9NRA0 whole entry): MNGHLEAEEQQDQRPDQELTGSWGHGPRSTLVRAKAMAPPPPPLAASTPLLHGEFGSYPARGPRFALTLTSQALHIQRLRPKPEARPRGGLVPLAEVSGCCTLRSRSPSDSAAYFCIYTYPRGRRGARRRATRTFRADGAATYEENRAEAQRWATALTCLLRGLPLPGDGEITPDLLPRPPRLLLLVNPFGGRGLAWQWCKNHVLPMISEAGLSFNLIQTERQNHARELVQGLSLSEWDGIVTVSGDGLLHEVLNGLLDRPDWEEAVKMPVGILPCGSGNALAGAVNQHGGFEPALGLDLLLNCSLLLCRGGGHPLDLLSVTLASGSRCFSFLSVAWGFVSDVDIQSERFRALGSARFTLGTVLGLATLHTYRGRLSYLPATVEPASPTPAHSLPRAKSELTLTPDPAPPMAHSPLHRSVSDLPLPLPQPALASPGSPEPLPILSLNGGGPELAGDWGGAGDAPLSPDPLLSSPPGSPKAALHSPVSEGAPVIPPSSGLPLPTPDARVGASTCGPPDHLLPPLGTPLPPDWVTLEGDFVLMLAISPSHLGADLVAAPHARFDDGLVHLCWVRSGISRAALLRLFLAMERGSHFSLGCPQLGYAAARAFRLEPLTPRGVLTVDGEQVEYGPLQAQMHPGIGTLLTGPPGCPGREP

Rattus norvegicus [2] = test: Antiarthritic activity in CFA-induced rheumatoid arthritis Wistar rat model assessed as reduction in foot swelling at 3 mg/kg, ig measured after 21 to 28 days; type: functional, organism-based; conditions: time 21-28 day
Rattus norvegicus [3] = test: Antiinflammatory activity against CFA-induced rheumatoid arthritis Wistar rat model assessed as decrease in IL-1beta level at 3 mg/kg, ig measured after 28 days; type: functional, organism-based; conditions: time 28.0 day
Rattus norvegicus [4] = test: Antiinflammatory activity against CFA-induced rheumatoid arthritis Wistar rat model assessed as decrease in synovial hyperplasia at 3 mg/kg, ig after 28 days; type: functional, organism-based; conditions: time 28.0 day
Rattus norvegicus [5] = test: Antiinflammatory activity against CFA-induced rheumatoid arthritis Wistar rat model assessed as decrease in cell infiltration at 3 mg/kg, ig after 28 days; type: functional, organism-based; conditions: time 28.0 day
Rattus norvegicus [6] = test: Antiinflammatory activity against CFA-induced rheumatoid arthritis Wistar rat model assessed as decrease in TNFalpha level at 3 mg/kg, ig measured after 28 days; type: functional, organism-based; conditions: time 28.0 day
Rattus norvegicus [7] = test: Antiinflammatory activity against CFA-induced rheumatoid arthritis Wistar rat model assessed as decrease in IL6 level at 3 mg/kg, ig measured after 28 days; type: functional, organism-based; conditions: time 28.0 day
Rattus norvegicus [8] = test: Antiarthritic activity in CFA-induced rheumatoid arthritis Wistar rat model assessed as increase in weight at 3 mg/kg, ig measured after 14 to 28 days; type: functional, organism-based; conditions: time 14-28 day
Rattus norvegicus [9] = test: Antiinflammatory activity against CFA-induced rheumatoid arthritis Wistar rat model assessed as decrease in spleen index at 3 mg/kg, ig measured after 28 days; type: functional, organism-based; conditions: time 28.0 day
Rattus norvegicus [10] = test: Antiarthritic activity in CFA-induced rheumatoid arthritis Wistar rat model assessed as reduction in arthritis index at 3 mg/kg, ig for 28 days; type: functional, organism-based; conditions: time 28.0 day
Rattus norvegicus [11] = test: Antiinflammatory activity against CFA-induced rheumatoid arthritis Wistar rat model assessed as decrease in cartilage damage at 3 mg/kg, ig after 28 days; type: functional, organism-based; conditions: time 28.0 day
Rattus norvegicus [12] = test: Antiinflammatory activity against CFA-induced rheumatoid arthritis Wistar rat model assessed as decrease in cell infiltration at 30 mg/kg, ig after 28 days; type: functional, organism-based; conditions: time 28.0 day
Rattus norvegicus [13] = test: Antiinflammatory activity against CFA-induced rheumatoid arthritis Wistar rat model assessed as decrease in TNFalpha level at 30 mg/kg, ig measured after 28 days; type: functional, organism-based; conditions: time 28.0 day
HFLS-RA [14] = test: Antiinflammatory activity against LPS-induced HFLS-RA cells assessed as reduction in IL-1beta expression; type: functional, cell-based; conditions: Homo sapiens, dose 5-20 µM
Rattus norvegicus [15] = test: Antiinflammatory activity against CFA-induced rheumatoid arthritis Wistar rat model assessed as decrease in IL6 level at 30 mg/kg, ig measured after 28 days; type: functional, organism-based; conditions: time 28.0 day
HFLS-RA [16] = test: Antiinflammatory activity against LPS-induced HFLS-RA cells assessed as reduction in IL-1alpha expression; type: functional, cell-based; conditions: Homo sapiens, dose 5-20 µM
Rattus norvegicus [17] = test: Antiarthritic activity in CFA-induced rheumatoid arthritis Wistar rat model assessed as increase in weight at 30 mg/kg, ig measured after 14 to 28 days; type: functional, organism-based; conditions: time 14-28 day
HFLS-RA [18] = test: Antiinflammatory activity against LPS-induced HFLS-RA cells assessed as reduction in IL-6 expression; type: functional, cell-based; conditions: Homo sapiens, dose 5-20 µM
Rattus norvegicus [19] = test: Antiarthritic activity in CFA-induced rheumatoid arthritis Wistar rat model assessed as reduction in foot swelling at 30 mg/kg, ig measured after 21 to 28 days; type: functional, organism-based; conditions: time 21-28 day
Rattus norvegicus [20] = test: Antiinflammatory activity against CFA-induced rheumatoid arthritis Wistar rat model assessed as decrease in IL-1beta level at 30 mg/kg, ig measured after 28 days; type: functional, organism-based; conditions: time 28.0 day
Rattus norvegicus [21] = test: Antiinflammatory activity against CFA-induced rheumatoid arthritis Wistar rat model assessed as decrease in spleen index at 30 mg/kg, ig measured after 28 days; type: functional, organism-based; conditions: time 28.0 day
Rattus norvegicus [22] = test: Antiinflammatory activity against CFA-induced rheumatoid arthritis Wistar rat model assessed as decrease in paw swelling at 30 mg/kg, ig after 28 days; type: functional, organism-based; conditions: time 28.0 day
Rattus norvegicus [23] = test: Antiinflammatory activity against CFA-induced rheumatoid arthritis Wistar rat model assessed as decrease in cartilage damage at 30 mg/kg, ig after 28 days; type: functional, organism-based; conditions: time 28.0 day
HFLS-RA [24] = test: Antiinflammatory activity against LPS-induced HFLS-RA cells assessed as reduction in TNF-alpha expression; type: functional, cell-based; conditions: Homo sapiens, dose 5-20 µM
Rattus norvegicus [25] = test: Antiarthritic activity in CFA-induced rheumatoid arthritis Wistar rat model assessed as reduction in arthritis index at 30 mg/kg, ig for 28 days; type: functional, organism-based; conditions: time 28.0 day
Rattus norvegicus [26] = test: Antiinflammatory activity against CFA-induced rheumatoid arthritis Wistar rat model assessed as decrease in synovial hyperplasia at 30 mg/kg, ig after 28 days; type: functional, organism-based; conditions: time 28.0 day

Sphingosine kinase 1, sequence (Q9NYA1 whole entry): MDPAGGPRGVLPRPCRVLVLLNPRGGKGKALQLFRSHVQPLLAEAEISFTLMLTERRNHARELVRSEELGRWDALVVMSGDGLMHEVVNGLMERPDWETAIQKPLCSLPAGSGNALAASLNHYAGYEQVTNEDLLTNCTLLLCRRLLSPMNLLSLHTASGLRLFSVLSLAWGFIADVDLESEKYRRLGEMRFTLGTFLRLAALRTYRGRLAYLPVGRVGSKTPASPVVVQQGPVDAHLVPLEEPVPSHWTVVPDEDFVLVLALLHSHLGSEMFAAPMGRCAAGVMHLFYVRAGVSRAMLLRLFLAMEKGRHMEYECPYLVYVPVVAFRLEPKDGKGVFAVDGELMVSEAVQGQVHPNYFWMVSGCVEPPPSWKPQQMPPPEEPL

N[C@H]1CN[C@H](CCCCCCCCCCOO)[C@H]1O
IC50 [1]: 116 µM

N[C@H]1CN[C@H](CCCCCCCCCCCOC2CCOCC2)[C@H]1O
IC50 [1]: 11.2 µM

N[C@H]1CN[C@H](CCCCCCCCCOCC2CCCCC2)[C@H]1O
IC50 [1]: 99.7 µM

CCCCCCCCCCCCCC[C@H]1NC[C@H](N)[C@@H]1O [listing 1 of 3 here]
IC50 [1]: 10.7 µM | IC50 (Sphingosine kinase 1): > 100 µM | IC50 (Sphingosine kinase 2): > 100 µM

N[C@H]1CN[C@H](CCCCCCCCCCOCC2CCCCC2)[C@H]1O
IC50 [1]: 51.2 µM

Cc1ccc(-c2cc(C(F)(F)F)nn2-c2ccc(S(N)(=O)=O)cc2)cc1
Activity (Rattus norvegicus [2]): Active | Activity (Rattus norvegicus [3]): Active | Activity (Rattus norvegicus [4]): Active | Activity (Rattus norvegicus [5]): Active | Activity (Rattus norvegicus [6]): Active | Activity (Rattus norvegicus [7]): Active | Activity (Rattus norvegicus [8]): Active | Activity (Rattus norvegicus [9]): Active | Activity (Rattus norvegicus [10]): Active | Activity (Rattus norvegicus [11]): Active

CC(OCCCCCCCCCC[C@H]1NC[C@H](N)[C@@H]1O)c1ccccc1 (some centres not stated)
IC50 [1]: 24.8 µM

CC(OCCCCCCCCCC[C@H]1NC[C@H](N)[C@@H]1O)c1ccc(F)cc1 (some centres not stated)
IC50 [1]: 18.9 µM

N#Cc1ccc(COCCCCCCCCCC[C@H]2NC[C@H](N)[C@@H]2O)cc1
IC50 [1]: 10.2 µM

CN(Cc1cnc2nc(N)nc(N)c2n1)c1ccc(C(=O)N[C@@H](CCC(=O)O)C(=O)O)cc1 [METHOTREXATE]
IC50 [1]: 5.48 µM

CC(C)COCCCCCCCCCC[C@H]1NC[C@H](N)[C@@H]1O
IC50 [1]: 18.1 µM

COc1ccc(COCCCCCCCCCC[C@H]2NC[C@H](N)[C@@H]2O)c(OC)c1
IC50 [1]: 14.3 µM

N[C@H]1CN[C@H](CCCCCCCCCCOCc2ccc(F)cc2)[C@H]1O
IC50 [1]: 10.7 µM

CCCCCCCCCCCC[C@H]1NC[C@H](N)[C@@H]1O
IC50 [1]: 94.8 µM

Cc1c(F)c(F)c(COCCCCCCCCCC[C@H]2NC[C@H](N)[C@@H]2O)c(F)c1F
IC50 [1]: 11.4 µM

CCCCCCCCCCCCCC[C@H]1NC[C@H](N)[C@@H]1O [listing 2 of 3 here]
Activity (Rattus norvegicus [12]): Active | Activity (Rattus norvegicus [13]): Active | Activity (HFLS-RA [14]): Dose-dependent effect | Activity (Rattus norvegicus [15]): Active | Activity (HFLS-RA [16]): Dose-dependent effect | Activity (Rattus norvegicus [17]): Active | Activity (HFLS-RA [18]): Dose-dependent effect | Activity (Rattus norvegicus [19]): Active | Activity (Rattus norvegicus [20]): Active | Activity (Rattus norvegicus [21]): Active | Activity (Rattus norvegicus [22]): Active | Activity (Rattus norvegicus [23]): Active | Activity (HFLS-RA [24]): Dose-dependent effect | Activity (Rattus norvegicus [25]): Active | Activity (Rattus norvegicus [26]): Active

N[C@H]1CN[C@H](CCCCCCCCCCOCc2ccc(C(F)(F)F)cc2)[C@H]1O
IC50 [1]: 19.6 µM

CCCCCCCCCCCCCC[C@H]1NC[C@H](N)[C@@H]1O [listing 3 of 3 here]
IC50 [1]: 8.64 µM | IC50 (Sphingosine kinase 1): 8.89 µM | IC50 (Sphingosine kinase 2): > 100 µM

N[C@H]1CN[C@H](CCCCCCCCCCCOCC2CCCCC2)[C@H]1O
IC50 [1]: 46.3 µM

N[C@H]1CN[C@H](CCCCCCCCCOCc2ccccc2)[C@H]1O
IC50 [1]: 15.1 µM
